Measured values: ChEMBL document CHEMBL1201862, “PubChem BioAssay data set” (2004)
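How tested: cells in 96-well plates exposed to compound for 48 hours at five concentrations. GI50: concentration for 50% inhibition of growth.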 Active and inactive are the calls of the source. Rule as the data show it: active = GI50 up to about 1.1 µM and inactive = higher.

Tests used:
Assay in all cases: growth of human tumour cells (NCI), 48 h
IGROV-1 = system: IGROV-1
M14 = system: M14
MCF7 = system: MCF7
UACC-257 = system: UACC-257
NCI/ADR-RES = system: NCI/ADR-RES
RXF 393 = system: RXF 393
SK-MEL-2 = system: SK-MEL-2
OVCAR-5 = system: OVCAR-5
A498 = system: A498
SNB-75 = system: SNB-75
NCI-H460 = system: NCI-H460
NCI-H23 = system: NCI-H23
SNB-19 = system: SNB-19
SW-620 = system: SW-620
KM12 = system: KM12
ACHN = system: ACHN
EKVX = system: EKVX
OVCAR-3 = system: OVCAR-3
A549 = system: A549
Hs-578T = system: Hs-578T

| SMILES | GI50 (IGROV-1) | GI50 (M14) | GI50 (MCF7) | GI50 (UACC-257) | GI50 (NCI/ADR-RES) | GI50 (RXF 393) | GI50 (SK-MEL-2) | GI50 (OVCAR-5) | GI50 (A498) | GI50 (SNB-75) | GI50 (NCI-H460) | GI50 (NCI-H23) | GI50 (SNB-19) | GI50 (SW-620) | GI50 (KM12) | GI50 (ACHN) | GI50 (EKVX) | GI50 (OVCAR-3) | GI50 (A549) | GI50 (Hs-578T) |
| --- | --- | --- | --- | --- | --- | --- | --- | --- | --- | --- | --- | --- | --- | --- | --- | --- | --- | --- | --- | --- |
| Sc1nnc(COc2ccc(Cl)cc2)n1-c1ccccc1 | > 100 µM (inactive) | > 100 µM (inactive) | > 100 µM (inactive) | > 100 µM (inactive) | > 100 µM (inactive) | > 100 µM (inactive) | > 100 µM (inactive) | > 100 µM (inactive) | > 100 µM (inactive) | > 100 µM (inactive) | > 100 µM (inactive) | > 100 µM (inactive) | > 100 µM (inactive) | > 100 µM (inactive) | > 100 µM (inactive) | > 100 µM (inactive) | > 100 µM (inactive) | > 100 µM (inactive) | > 100 µM (inactive) |  |
| COc1cc(C2C3C=CC=C4CC=CC(=C43)C3CCC(=O)N32)cc(OC)c1OC (configuration not stated) | 68.4 µM (inactive) | > 100 µM (inactive) | > 100 µM (inactive) | > 100 µM (inactive) | 13.8 µM (inactive) |  | > 100 µM (inactive) | > 100 µM (inactive) | > 100 µM (inactive) | > 100 µM (inactive) | > 100 µM (inactive) |  | > 100 µM (inactive) | > 100 µM (inactive) | > 100 µM (inactive) | > 100 µM (inactive) | > 100 µM (inactive) | > 100 µM (inactive) | 99.1 µM (inactive) |  |
| COC(=O)[C@H](CCSC)NC(=O)N[C@H](C)c1ccccc1 | > 100 µM (inactive) | > 100 µM (inactive) | > 100 µM (inactive) | 86.7 µM (inactive) | 60.7 µM (inactive) |  | > 100 µM (inactive) | > 100 µM (inactive) | > 100 µM (inactive) | > 100 µM (inactive) | > 100 µM (inactive) | > 100 µM (inactive) | > 100 µM (inactive) | > 100 µM (inactive) | > 100 µM (inactive) | > 100 µM (inactive) | > 100 µM (inactive) | > 100 µM (inactive) | > 100 µM (inactive) | > 100 µM (inactive) |
| O=C(CSCC(=O)N/N=C\c1ccc(-c2ccccc2)cc1)N/N=C\c1ccc(-c2ccccc2)cc1 | 11.8 µM (inactive) | 23.8 µM (inactive) | 36.1 µM (inactive) | 35.7 µM (inactive) | 56.4 µM (inactive) | 50.5 µM (inactive) | 16 µM (inactive) | 29.6 µM (inactive) |  | 16.3 µM (inactive) | 30.9 µM (inactive) | 17.8 µM (inactive) | 26.2 µM (inactive) | 16.3 µM (inactive) | 17.9 µM (inactive) | 23.9 µM (inactive) | 45.2 µM (inactive) | 16.1 µM (inactive) | 25.8 µM (inactive) | 18.3 µM (inactive) |
| CCCCC1(NN=C2CCCCC2)C(=O)N(c2ccccc2)N(c2ccccc2)C1=O | > 100 µM (inactive) | > 100 µM (inactive) | > 100 µM (inactive) | > 100 µM (inactive) | > 100 µM (inactive) | > 100 µM (inactive) |  |  |  | > 100 µM (inactive) | > 100 µM (inactive) | > 100 µM (inactive) | > 100 µM (inactive) | > 100 µM (inactive) | > 100 µM (inactive) | > 100 µM (inactive) | > 100 µM (inactive) | > 100 µM (inactive) | > 100 µM (inactive) | > 100 µM (inactive) |
| C=C1c2c(n(S(=O)(=O)c3ccccc3)c3ccccc23)[C@@]2(C(=O)OC)CC3C=CC2N1C3 | > 100 µM (inactive) | > 100 µM (inactive) | > 100 µM (inactive) | > 100 µM (inactive) | > 100 µM (inactive) | > 100 µM (inactive) | > 100 µM (inactive) | > 100 µM (inactive) |  | > 100 µM (inactive) | > 100 µM (inactive) | > 100 µM (inactive) | > 100 µM (inactive) | > 100 µM (inactive) | > 100 µM (inactive) | > 100 µM (inactive) | > 100 µM (inactive) | > 100 µM (inactive) | > 100 µM (inactive) |  |
| CC1=CC(=O)/C(=C/n2c(=S)[nH]c3ccc([N+](=O)[O-])cc32)C(=O)O1 | > 100 µM (inactive) | > 100 µM (inactive) | > 100 µM (inactive) | > 100 µM (inactive) | > 100 µM (inactive) | > 100 µM (inactive) | > 100 µM (inactive) | > 100 µM (inactive) |  | > 100 µM (inactive) | > 100 µM (inactive) | > 100 µM (inactive) | > 100 µM (inactive) | > 100 µM (inactive) | > 100 µM (inactive) | > 100 µM (inactive) | > 50.1 µM (inactive) | > 100 µM (inactive) | > 100 µM (inactive) | > 100 µM (inactive) |
| CC1=NNC(=O)C1C1CC(c2c[nH]c3ccccc23)=NNC1=O (configuration not stated) | 0.773 µM (active) | > 100 µM (inactive) |  | > 100 µM (inactive) | > 100 µM (inactive) | > 100 µM (inactive) | > 100 µM (inactive) | > 100 µM (inactive) | > 100 µM (inactive) | 28.4 µM (inactive) | > 100 µM (inactive) | > 100 µM (inactive) | > 100 µM (inactive) | > 100 µM (inactive) | 62.7 µM (inactive) | > 100 µM (inactive) | 11.9 µM (inactive) | > 100 µM (inactive) | > 100 µM (inactive) | > 100 µM (inactive) |
| CC1=C/C(=N\NS(=O)(=O)c2ccc([N+](=O)[O-])cc2)CC(C)(C)C1 | 57.5 µM (inactive) | > 100 µM (inactive) | > 100 µM (inactive) | 80.5 µM (inactive) | 93.5 µM (inactive) | > 100 µM (inactive) | > 100 µM (inactive) | > 100 µM (inactive) | > 100 µM (inactive) |  | 51.6 µM (inactive) | 92.9 µM (inactive) | 69 µM (inactive) | > 100 µM (inactive) | 76.2 µM (inactive) | 54.6 µM (inactive) | > 100 µM (inactive) | > 100 µM (inactive) | 48.8 µM (inactive) |  |
| Cc1cccc(NC(Nc2cccc(C)c2)=C(C(Cl)=C(Cl)Cl)[N+](=O)[O-])c1 | 2.28 µM (inactive) | 16.1 µM (inactive) | 22.3 µM (inactive) | 19.3 µM (inactive) | 14 µM (inactive) | 3.94 µM (inactive) | 16.4 µM (inactive) | 19.6 µM (inactive) | 36.7 µM (inactive) | 25.2 µM (inactive) | 14.2 µM (inactive) | 9.12 µM (inactive) | 25.8 µM (inactive) | 14.8 µM (inactive) | 19.5 µM (inactive) | 15.7 µM (inactive) | 18.1 µM (inactive) | 9.31 µM (inactive) | 22 µM (inactive) |  |
| CCOC(=O)C(C)N1C(=O)c2ccccc2S1(=O)=O (configuration not stated) | > 100 µM (inactive) |  | > 100 µM (inactive) | > 100 µM (inactive) | > 100 µM (inactive) |  | > 100 µM (inactive) | > 100 µM (inactive) | > 100 µM (inactive) | > 100 µM (inactive) | > 100 µM (inactive) | > 100 µM (inactive) | > 100 µM (inactive) | > 100 µM (inactive) | > 100 µM (inactive) |  | > 100 µM (inactive) | > 100 µM (inactive) | > 100 µM (inactive) |  |
| C#CC(C)(C)Oc1cc(OC)c2c(=O)c3ccccc3n(C)c2c1 | 0.0238 µM (active) |  | 20.1 µM (inactive) | 10.9 µM (inactive) | 13.8 µM (inactive) | 25.2 µM (inactive) | 16.3 µM (inactive) | 31.8 µM (inactive) |  | 24.8 µM (inactive) | 13.5 µM (inactive) |  | 14.7 µM (inactive) | 31.9 µM (inactive) | 10.9 µM (inactive) | 12.7 µM (inactive) | 20.9 µM (inactive) |  | 9.86 µM (inactive) | 17.5 µM (inactive) |
| CCOC(=O)N(CC)c1c(C(F)(F)F)cc(-c2ccccc2)[nH]c1=O | 47.2 µM (inactive) | 66.4 µM (inactive) | 44 µM (inactive) | 48.3 µM (inactive) | 24.7 µM (inactive) | 28.2 µM (inactive) | 72.6 µM (inactive) | > 100 µM (inactive) | 50.7 µM (inactive) |  | 45.1 µM (inactive) | 52.2 µM (inactive) | > 100 µM (inactive) | 54.7 µM (inactive) | 36.1 µM (inactive) | 58.6 µM (inactive) | 33.5 µM (inactive) | 37.1 µM (inactive) | 45.3 µM (inactive) |  |
| CCN(CC)C(=O)Cn1c(-c2ccccc2)cc2ccccc21 | 60.8 µM (inactive) | 87.3 µM (inactive) | 33.5 µM (inactive) | 41.9 µM (inactive) | 23.4 µM (inactive) | 22.9 µM (inactive) | 72.8 µM (inactive) | 43.1 µM (inactive) |  | 41.5 µM (inactive) | 36.4 µM (inactive) | 44.4 µM (inactive) | 42.8 µM (inactive) | 43.2 µM (inactive) | 38.3 µM (inactive) | 30.9 µM (inactive) | 16.6 µM (inactive) | > 100 µM (inactive) | 33 µM (inactive) | 33.5 µM (inactive) |
| O=C1Nc2ccc(Br)cc2/C1=C/C(=O)c1ccccc1 | 3.67 µM (inactive) | 11.1 µM (inactive) | 4.18 µM (inactive) | 15.1 µM (inactive) |  | 1.95 µM (inactive) | 16 µM (inactive) | 22.5 µM (inactive) | 18.6 µM (inactive) | 17.3 µM (inactive) | 18.2 µM (inactive) | 10.2 µM (inactive) | 19.4 µM (inactive) | 2.25 µM (inactive) | 7.83 µM (inactive) | 1.87 µM (inactive) | 14.5 µM (inactive) | 6.82 µM (inactive) | 16.1 µM (inactive) | 17.7 µM (inactive) |
